From paper PMC8498006 (Advances in Redox Research, 2021)

Columns and labels:
[1] = molecular target: SARS-CoV-2 M^pro (MBP-tagged main protease) (Severe acute respiratory syndrome coronavirus 2, UniProt P0DTD1); test: biochemical; conditions: for suppressive effect on the protease activity at 20 µM: 20 µM phytochemical, 0.5 µM enzyme, 37°C 30 min
[2] = molecular target: T1, SARS-CoV-2 M^pro (MBP-cleaved) (Severe acute respiratory syndrome coronavirus 2, UniProt P0DTD1); test: Intact MS of M^pro after incubation with phytochemicals; format: binding; conditions: 0.5 µM enzyme; for covalent adduct on M^pro by intact MS: 1 µM phytochemical, 37°C 30 min
[3] = molecular target: T1, SARS-CoV-2 M^pro (MBP-cleaved); test: Enzyme activity of MBP-cleaved M^pro with EGCG/myricetin, with or without GSH; format: biochemical; conditions: 0.5 µM enzyme
[4] = molecular target: T1, SARS-CoV-2 M^pro (MBP-cleaved); test: Quinone detection on blotted membrane by redox-cycling; format: binding; conditions: 2.5 µM phytochemical, 1 mM GSH
[5] = molecular target: T1, SARS-CoV-2 M^pro (MBP-cleaved); test: Free thiols in the enzyme by biotin incorporation; conditions: iodoacetyl-LC-biotin labelling

Compound	IC50 [1] [µM]	suppressive effect on the protease activity at 20 µM [1]	covalent adduct on M^pro by intact MS [2]	further results
C=CCN=C=S [AITC, Allyl isothiocyanate]	33.3	–	–	–
S=C=NCc1ccccc1 [BITC, benzyl isothiocyanate]	4.5	considerably inhibited	–	–
S=C=NCCc1ccccc1 [PEITC, phenethyl isothiocyanate]	14.2	–	–	–
O=c1cc(-c2ccccc2)oc2cc(O)c(O)c(O)c12 [baicalein]	–	–	covalent adducts were not observed	–
OC[C@H]1O[C@@H](Oc2cc3c(O)cc(O)cc3[o+]c2-c2ccc(O)c(O)c2)[C@H](O)[C@@H](O)[C@@H]1O.[Cl-] [cyanidine-3-glucoside, Cyanidine-3-glucoside chloride]	–	did not show suppressive effect	–	–
O=c1c(O)c(-c2ccc(O)cc2)oc2c(O)c(O)cc(O)c12 [herbacetin]	19.2	–	covalent adducts were not observed	–
O=c1c(O)c(-c2cc(O)c(O)c(O)c2)oc2cc(O)cc(O)c12 [myricetin]	–	considerably inhibited	One or two molecule(s)	dose dependence of adduction by intact MS ([2]; 0–5 µM): dose-dependently observed; enzyme activity with increasing concentration ([3]; 0–5 µM, substrate reaction 15 min): decreased accordingly; enzyme activity loss in the presence of GSH ([3]; 2.5 µM phytochemical, 1 mM GSH, 30 min): canceled; quinone staining in the presence of GSH [4]: canceled; free thiols in the M^pro with increasing concentration [5]: decreased
COc1ccc(-c2cc(=O)c3c(O)c(OC)c(O[C@@H]4O[C@H](CO[C@@H]5O[C@@H](C)[C@H](O)[C@@H](O)[C@H]5O)[C@@H](O)[C@H](O)[C@H]4O)cc3o2)cc1 [pectolinarin]	–	did not show suppressive effect	–	–
Oc1cc(O)cc(/C=C/c2ccc(O)c(O)c2)c1 [piceatannol]	13.8	–	One or two molecule(s)	–
O=c1c(O)c(-c2ccc(O)c(O)c2)oc2cc(O)cc(O)c12 [quercetin]	–	did not show suppressive effect	–	–
C[C@@H]1O[C@@H](OC[C@H]2O[C@@H](Oc3c(-c4ccc(O)c(O)c4)oc4cc(O)cc(O)c4c3=O)[C@H](O)[C@@H](O)[C@@H]2O)[C@H](O)[C@H](O)[C@H]1O [rutin, quercetin-3-O-rutinoside]	–	did not show suppressive effect	–	–
O=c1c(O)cc([C@H]2Oc3cc(O)cc(O)c3C[C@H]2O)cc2c([C@H]3Oc4cc(O)cc(O)c4C[C@H]3O)cc(O)c(O)c12 [theaflavin]	6.1	considerably inhibited	One or two molecule(s)	–
myricitrin	–	–	covalent adducts were not observed	–
